Laboratory results from patent US20250236616A1, “IMMUNOMODULATING AZALIDES” (Zoetis Services LLC, priority 2021, published 2025).
“Also recorded” adds a separate entry of the source.

What was measured:
P. multocida = assay: Murine P. multocida intranasal challenge study, treatment 18 hours after challenge, survival; format: in vivo, mice; settings: subcutaneous 18 hours after challenge (5×10^3 CFU/mouse); tulathromycin 16 mg/kg, M9 32 mg/kg, ceftiofur 9 mg/kg
Protocol: In one murine P. multocida intranasal challenge study, mice were administered tulathromycin (16 mg/kg; T02), M9 (32 mg/kg; T03), or ceftiofur (9 mg/kg; T04) by subcutaneous injection 18 hours after bacterial challenge (5×10^3 CFU/mouse) for lung tissue RNA sequence analysis. Survival at Day 7 was about 80%, 50%, and 90% for T02, T03, and T04, respectively, compared to placebo at 0%. Differential gene expression from total lung tissue RNA sequence analysis indicated at least 226 unique genes were up or down regulated (with significance) for T03. Output from ingenuity pathway analysis of these unique genes predicted major upstream regulators of the involved pathways. Data was analyzed based on the number of genes being modulated in the same direction that were associated with a given upstream regulator. An activation z-score of 2 or greater is considered significant and the direction change is indicated by + (activated) or -(inhibited). The top 5 pathways included: IL-9 signaling, glucocorticoid receptor signaling, prolactin signaling, JAK STAT signaling, and IL-17 signaling. The top 6 upstream regulators (activation z-score) included: lipopolysaccharide (−6.725), TNF (−4.669), IFNγ (−5.759), IL-1β (−5.947), STAT1 (−2.787), and poly rl: rC-RNA (−5.289). Even though this study was run in the murine model, the top upstream regulators identified as being modulated by M9 include an almost ubiquitous overlap with the pathways identified in the natural disease study as being key mediators in BRD, and therefore is modulating highly relevant pathways in BRD pathobiology.

IL-6 = IL-6 biomarker in bovine M. haemolytica challenge; format: in vivo
Protocol: Cytokine Detection—An MSD U-Plex cytokine assay was developed following the MSD U-Plex protocol guide and included biotinylated capture antibodies against: bovine Interleukin (IL)-1β (Biorad), bovine IL-6 (R&D Systems) and bovine tumor necrosis factor (TNF)-α (R&D Systems). The anti-IL-1β antibody was biotinylated using EZ-Link Sulfo-NHS-Biotin (Thermo Scientific) at a challenge ratio of 1:20 according to manufacturer instructions. Assay calibrators (Kingfisher) were diluted to a concentration of […] in control lithium heparin plasma, followed by 4-fold serial dilutions into plasma. The detection antibodies were sulfo-tagged following the MSD quick guide conjugation protocol using a challenge ratio of 1:20. Antibodies were used at the following concentrations: anti-IL-1β at 1 μg/mL, anti-IL-6 at 1 μg/mL and anti-TNF-α at 0.5 μg/mL. Cytokines were quantified according to manufacturer's instructions using a chemiluminescent readout. In brief, 0.5 mL of all biotinylated antibodies were diluted to 10 μg/mL with Diluent 100 and paired to their respective linkers by adding 750 μL of supplied Linker solution and incubated for 30 minutes followed by addition of Stop solution for another 30 minutes. […] Plates were washed a further three times before addition of 150 μL 2X Read buffer and read immediately on the SI6000 instrument (MSD). […]

[1] = tested on: M. haemolytica challenge model; assay: Separate study, M9 versus saline control: lung lesions and mortality; format: in vivo; settings: 10 mg/kg; saline control 38.9%, p=0.025
Excerpt: BRD infection as compared to saline (T01) in the M. haemolytica challenge model. […] Additionally, reduction of biomarkers consistent with the proposed mechanism were observed.

CD163 = CD163 expression by flow cytometry, cattle; format: in vivo, bovine; settings: monocytes/macrophages of whole blood
Protocol: CD163 Expression by Flow Cytometry-Fresh whole bovine blood samples were collected into EDTA vacutainer tubes, placed on ice and processed within two hours of collection. Blood was placed in 96 well round bottom plates at 30 μL per well, 5 μL of goat serum was added as a blocking reagent and the plate was rocked at 4° C. for approximately 15 minutes. To label cells, 10 μL of a master mix panel of antibodies including anti-CD14 (BioLegend #301854), anti-CD172a (BioRad #MCA2041C), anti-CD163 (Kingfisher #WSC0832B-100) and anti-CD16 (BioRad #MCA5665F), was added to the samples and returned to 4° C. (protected from light) for 30 minutes. Single stain controls were included for use in fluorescence compensation matrices. Red blood cells were removed by adding 200 μL of lysis buffer and incubating for 10 minutes at room temperature while rocking. The plate was then centrifuged at 270×g for three minutes and supernatant removed. This step was repeated until supernatant was clear. 200 μL of FACS buffer was added to each well to wash cells, centrifuged as above, resuspended in 80 μL of FACS buffer and read immediately on a digital FACS Canto II HTS (BD Bioscience) flow cytometer. Data was analyzed using FlowJo software (BD Bioscience). Macrophage subpopulations were determined using CD172, CD14, CD16 markers and assessed for expression of CD163. […]

CCCNC[C@]1(O)[C@H](C)O[C@@H](O[C@H]2[C@H](C)[C@@H](O[C@@H]3O[C@H](C)C[C@H](NC)[C@H]3O)[C@](C)(O)C[C@@H](C)CN[C@H](C)[C@@H](O)[C@](C)(O)[C@@H](CC)OC(=O)[C@@H]2C)C[C@@]1(C)OC [Example M9, (2R,3S,4R,5R,8R,10R,11R,12S,13S,14R)-2-ethyl-3,4, 10-trihydroxy-13-(((2R,4R,5S,6S)-5-hydroxy-4-methoxy-4,6-dimethyl-5-((propylamino)methyl)-tetrahydro-2H-pyran-2-yl)oxy)-11-(((2S,3R,4S,6R)-3-hydroxy-6-methyl-4-(methylamino)tetrahydro-2H-pyran-2-yl)oxy)-3,5,8,10,12,14-hexamethyl-1-oxa-6-azacyclopentadecan-15-one]
Survival at Day 7 (P. multocida): ~50% | IL-6 levels (IL-6): significantly reduced IL-6 levels | Mortality [1]: 13% | CD163 expression (CD163): suppressed; also recorded: mitigates the pathologic increase in CD163 expression
